# Source: patent US20210300936A1, “PYRAZOLOTRIAZOLOPYRIMIDINE DERIVATIVES AS A2A RECEPTOR ANTAGONIST” (BEIGENE, LTD., priority 2018, published 2021)
# Target: human A2A receptor (A2AR) (Homo sapiens, UniProt P29274)
# Test: Luciferase reporter assay (HEK293-A2AR-luc2p/CRE/Hygro cells, 3 nM CGS21680)
# Assay type: cell-based
# Conditions: 3 nM CGS21680, 5 h incubation
# Description: HEK293 cells were maintained in Dulbecco's modified Eagle's medium (DMEM, Gibco) supplemented with 10% fetal bovine serum (FBS, Thermo Scientific), 100 units/mL penicillin (Gibco), and 0.1 mg/mL streptomycin (Gibco) in a humidified 37° C. environment with 5% C02. Plasmid encoding wild-type human A2A receptor (A2AR) (in pcDNA3.1) was synthesized by Genscript (Nanjing, China). Transfection of the plasmids was performed in 6-well plates with 4×10^5 cells using Lipofectamin 2000 (ThermoFisher Scientific) according to the instruction of the manufacturer. Cell clones that stably express A2AR were established and maintained in the same complete medium as the HEK293 cells in addition of G-418 (Gibico). Expression level of A2AR in each single cell clone was determined using immunoblotting and FACS method. HEK293-A2AR stable cells were then transfected with pGL4.29[luc2P/CRE/Hygro] (Promega) luciferase reporter plasmid for establishing the HEK293-A2AR-luc2p/CRE/Hygro stable cell line.
# HEK293-A2AR-luc2p/CRE/Hygro cells were seeded at a density of 5,000 cells/well in DMEM with 1% FBS and 1 U/mL adenosine deaminase (ADA) (Sigma). After 18 h, the cells were treated with 3 nM CGS21680 plus a series dilution of A2AR antagonist, the compounds disclosed herein at the concentration of 0.1˜10000 nM, prepared in DMEM with 1% FBS. After 5 h incubation, the luciferase activity in cells were measured using the Bright-Glo Luciferase Assay System (Promega) according to manufacturer's instructions. The luminescence signal was measured using a PHERAstar FS plate reader (BMG Labtech). […] Maximal luminescence intensity was determined in the presence of 3 nM CGS21680 and was set as 100%. The IC50 value was calculated from a dose dependent inhibition curve across the range of compound concentrations.
# Sequence of human A2A receptor (A2AR) (P29274 whole entry): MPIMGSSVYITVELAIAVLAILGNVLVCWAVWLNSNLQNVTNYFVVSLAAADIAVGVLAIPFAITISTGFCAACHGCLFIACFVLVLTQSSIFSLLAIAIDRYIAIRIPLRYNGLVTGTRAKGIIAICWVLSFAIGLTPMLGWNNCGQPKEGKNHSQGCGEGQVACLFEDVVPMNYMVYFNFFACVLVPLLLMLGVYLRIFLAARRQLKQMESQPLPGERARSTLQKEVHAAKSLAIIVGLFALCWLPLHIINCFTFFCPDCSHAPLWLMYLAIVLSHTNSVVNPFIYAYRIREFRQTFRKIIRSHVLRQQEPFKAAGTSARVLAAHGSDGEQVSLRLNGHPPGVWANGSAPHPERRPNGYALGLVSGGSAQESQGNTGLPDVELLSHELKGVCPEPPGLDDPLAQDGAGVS
row,SMILES,IC50 [nM]
1,"CCCC(C(=O)N1CCN(c2c(F)cc(OCCOC)cc2F)CC1)n1ncc2c1nc(N)n1nc(-c3ccco3)nc21 (stereo not shown) [Compound A25, 2-(5-amino-2-(furan-2-yl)-7H-pyrazolo[4,3-e][1,2,4]triazolo[1,5-c]pyrimidin-7-yl)-1-(4-(2,6-difluoro-4-(2-methoxyethoxy)phenyl)piperazin-1-yl)pentan-1-one]",4.5
2,"COCCOc1ccc(N2CCN(C(=O)C(COC)n3ncc4c3nc(N)n3nc(-c5ccco5)nc43)CC2)cc1 (stereo not shown) [Compound A26, 2-(5-amino-2-(furan-2-yl)-7H-pyrazolo[4,3-e][1,2,4]triazolo[1,5-c]pyrimidin-7-yl)-3-methoxy-1-(4-(4-(2-methoxyethoxy)phenyl)piperazin-1-yl)propan-1-one]",43.8
3,"COCCOCCOc1ccc(N2CCN(C(=O)C(COC)n3ncc4c3nc(N)n3nc(-c5ccco5)nc43)CC2)cc1 (stereo not shown) [Compound A27, 2-(5-amino-2-(furan-2-yl)-7H-pyrazolo[4,3-e][1,2,4]triazolo[1,5-c]pyrimidin-7-yl)-3-methoxy-1-(4-(4-(2-(2-methoxyethoxy)ethoxy)phenyl)piperazin-1-yl)propan-1-one]",39.4
4,"COCCOc1ccc(N2CCN(C(=O)C(c3ccc(F)cc3)n3ncc4c3nc(N)n3nc(-c5ccco5)nc43)CC2)cc1 (stereo not shown) [Compound A28, 2-(5-amino-2-(furan-2-yl)-7H-pyrazolo[4,3-e][1,2,4]triazolo[1,5-c]pyrimidin-7-yl)-2-(4-fluorophenyl)-1-(4-(4-(2-methoxyethoxy)phenyl)piperazin-1-yl)ethan-1-one]",7.6
5,"COCCOc1ccc(N2CCN(C(=O)C(c3ccc(OC)cc3)n3ncc4c3nc(N)n3nc(-c5ccco5)nc43)CC2)cc1 (stereo not shown) [Compound A29, 2-(5-amino-2-(furan-2-yl)-7H-pyrazolo[4,3-e][1,2,4]triazolo[1,5-c]pyrimidin-7-yl)-1-(4-(4-(2-methoxyethoxy)phenyl)piperazin-1-yl)-2-(4-methoxyphenyl)ethan-1-one]",20.5
6,"CNCCOc1ccc(N2CCN(C(=O)C(C)n3ncc4c3nc(N)n3nc(-c5ccco5)nc43)CC2)cc1 (stereo not shown) [Compound A30, 2-(5-amino-2-(furan-2-yl)-7H-pyrazolo[4,3-e][1,2,4]triazolo[1,5-c]pyrimidin-7-yl)-1-(4-(4-(2-(methylamino)ethoxy)phenyl)piperazin-1-yl)propan-1-one]",22
7,"COCCOc1ccc(N2CCN(C(=O)C(c3ccccc3OC)n3ncc4c3nc(N)n3nc(-c5ccco5)nc43)CC2)cc1 (stereo not shown) [Compound A31, 2-(5-amino-2-(furan-2-yl)-7H-pyrazolo[4,3-e][1,2,4]triazolo[1,5-c]pyrimidin-7-yl)-1-(4-(4-(2-methoxyethoxy)phenyl)piperazin-1-yl)-2-(2-methoxyphenyl)ethan-1-one]",0.6
8,"CCCCC(C(=O)N1CCN(c2ccc(OCCN(C)C)cc2)CC1)n1ncc2c1nc(N)n1nc(-c3ccco3)nc21 (stereo not shown) [Compound A32, 2-(5-amino-2-(furan-2-yl)-7H-pyrazolo[4,3-e][1,2,4]triazolo[1,5-c]pyrimidin-7-yl)-1-(4-(4-(2-(dimethylamino)ethoxy)phenyl)piperazin-1-yl)hexan-1-one]",7.2
9,"COCCOc1ccc(N2CCN(C(=O)C(c3ccc4ccccc4c3)n3ncc4c3nc(N)n3nc(-c5ccco5)nc43)CC2)cc1 (stereo not shown) [Compound A33, 2-(5-amino-2-(furan-2-yl)-7H-pyrazolo[4,3-e][1,2,4]triazolo[1,5-c]pyrimidin-7-yl)-1-(4-(4-(2-methoxyethoxy)phenyl)piperazin-1-yl)-2-(naphthalen-2-yl)ethan-1-one]",13.3
10,"COCCOc1ccc(N2CCN(C(=O)C(c3ccc(C(F)(F)F)cc3)n3ncc4c3nc(N)n3nc(-c5ccco5)nc43)CC2)cc1 (stereo not shown) [Compound A34, 2-(5-amino-2-(furan-2-yl)-7H-pyrazolo[4,3-e][1,2,4]triazolo[1,5-c]pyrimidin-7-yl)-1-(4-(4-(2-methoxyethoxy)phenyl)piperazin-1-yl)-2-(4-(trifluoromethyl)phenyl)ethan-1-one]",75.7
11,"CCCCC(C(=O)N1CCN(c2ccc(OCCNC)cc2)CC1)n1ncc2c1nc(N)n1nc(-c3ccco3)nc21 (stereo not shown) [Compound A35, 2-(5-amino-2-(furan-2-yl)-7H-pyrazolo[4,3-e][1,2,4]triazolo[1,5-c]pyrimidin-7-yl)-1-(4-(4-(2-(methylamino)ethoxy)phenyl)piperazin-1-yl)hexan-1-one]",5.8
12,"COCCOc1ccc(N2CCN(C(=O)C(c3cccc(C(F)(F)F)c3)n3ncc4c3nc(N)n3nc(-c5ccco5)nc43)CC2)cc1 (stereo not shown) [Compound A36, 2-(5-amino-2-(furan-2-yl)-7H-pyrazolo[4,3-e][1,2,4]triazolo[1,5-c]pyrimidin-7-yl)-1-(4-(4-(2-methoxyethoxy)phenyl)piperazin-1-yl)-2-(3-(trifluoromethyl)phenyl)ethan-1-one]",7.7
13,"CN(C)CCOc1ccc(N2CCN(C(=O)C(c3ccccc3)n3ncc4c3nc(N)n3nc(-c5ccco5)nc43)CC2)cc1 (stereo not shown) [Compound A37, 2-(5-amino-2-(furan-2-yl)-7H-pyrazolo[4,3-e][1,2,4]triazolo[1,5-c]pyrimidin-7-yl)-1-(4-(4-(2-(dimethylamino)ethoxy)phenyl)piperazin-1-yl)-2-phenylethan-1-one]",2.5
14,"COCCOc1ccc(N2CCN(C(=O)C(c3ccccc3C(F)(F)F)n3ncc4c3nc(N)n3nc(-c5ccco5)nc43)CC2)cc1 (stereo not shown) [Compound A38, 2-(5-amino-2-(furan-2-yl)-7H-pyrazolo[4,3-e][1,2,4]triazolo[1,5-c]pyrimidin-7-yl)-1-(4-(4-(2-methoxyethoxy)phenyl)piperazin-1-yl)-2-(2-(trifluoromethyl)phenyl)ethan-1-one]",0.6
15,"CCCC(C(=O)N1CCN(c2ccc(OCCN(C)C)cc2)CC1)n1ncc2c1nc(N)n1nc(-c3ccco3)nc21 (stereo not shown) [Compound A39, 2-(5-amino-2-(furan-2-yl)-7H-pyrazolo[4,3-e][1,2,4]triazolo[1,5-c]pyrimidin-7-yl)-1-(4-(4-(2-(dimethylamino)ethoxy)phenyl)piperazin-1-yl)pentan-1-one]",5.3
16,"COCCOc1ccc(N2CCN(C(=O)C(c3ccc(F)c(F)c3)n3ncc4c3nc(N)n3nc(-c5ccco5)nc43)CC2)cc1 (stereo not shown) [Compound A40, 2-(5-amino-2-(furan-2-yl)-7H-pyrazolo[4,3-e][1,2,4]triazolo[1,5-c]pyrimidin-7-yl)-2-(3,4-difluorophenyl)-1-(4-(4-(2-methoxyethoxy)phenyl)piperazin-1-yl)ethan-1-one]",23.7
17,"COCCOc1ccc(N2CCN(C(=O)C(c3cccc(OC)c3)n3ncc4c3nc(N)n3nc(-c5ccco5)nc43)CC2)cc1 (stereo not shown) [Compound A41, 2-(5-amino-2-(furan-2-yl)-7H-pyrazolo[4,3-e][1,2,4]triazolo[1,5-c]pyrimidin-7-yl)-1-(4-(4-(2-methoxyethoxy)phenyl)piperazin-1-yl)-2-(3-methoxyphenyl)ethan-1-one]",5.8
18,"COCCOc1ccc(N2CCN(C(=O)C(c3cccc(F)c3)n3ncc4c3nc(N)n3nc(-c5ccco5)nc43)CC2)cc1 (stereo not shown) [Compound A42, 2-(5-amino-2-(furan-2-yl)-7H-pyrazolo[4,3-e][1,2,4]triazolo[1,5-c]pyrimidin-7-yl)-2-(3-fluorophenyl)-1-(4-(4-(2-methoxyethoxy)phenyl)piperazin-1-yl)ethan-1-one]",5.1
19,"COCCOc1ccc(N2CCN(C(=O)C(c3ccccc3F)n3ncc4c3nc(N)n3nc(-c5ccco5)nc43)CC2)cc1 (stereo not shown) [Compound A43, 2-(5-amino-2-(furan-2-yl)-7H-pyrazolo[4,3-e][1,2,4]triazolo[1,5-c]pyrimidin-7-yl)-2-(2-fluorophenyl)-1-(4-(4-(2-methoxyethoxy)phenyl)piperazin-1-yl)ethan-1-one]",0.9
20,"COCCOc1ccc(N2CCN(C(=O)C(c3ccccc3)n3ncc4c3nc(N)n3nc(-c5ccco5)nc43)CC2)c(F)c1 (stereo not shown) [Compound A44, 2-(5-amino-2-(furan-2-yl)-7H-pyrazolo[4,3-e][1,2,4]triazolo[1,5-c]pyrimidin-7-yl)-1-(4-(2-fluoro-4-(2-methoxyethoxy)phenyl)piperazin-1-yl)-2-phenylethan-1-one]",2
21,"CCCC(C(=O)N1CCN(c2ccc(F)cc2)CC1)n1ncc2c1nc(N)n1nc(-c3ccco3)nc21 (stereo not shown) [Compound A45, 2-(5-amino-2-(furan-2-yl)-7H-pyrazolo[4,3-e][1,2,4]triazolo[1,5-c]pyrimidin-7-yl)-1-(4-(4-fluorophenyl)piperazin-1-yl)pentan-1-one]",6
22,"COCCOc1ccc(N2CCN(C(=O)C(c3ccccc3)n3ncc4c3nc(N)n3nc(-c5ccco5)nc43)C[C@@H]2C)cc1 (stereo partly drawn) [Compound A46, 2-(5-amino-2-(furan-2-yl)-7H-pyrazolo[4,3-e][1,2,4]triazolo[1,5-c]pyrimidin-7-yl)-1-((S)-4-(4-(2-methoxyethoxy)phenyl)-3-methylpiperazin-1-yl)-2-phenylethan-1-one]",2.9
